For this assay, the system named is low-molecular-weight compound-induced brown adipocytes (ciBAs). In words: Evaluation of browning tendency of ciBAs directly induced from human fibroblasts (Ucp1/Fabp4/Cidea expression, UCP1 protein, induction efficiency, mtDNA, OCR). Type of assay: cell-based. The note with it: human fibroblasts cultured 3 weeks. As for the experimental part: The human fibroblasts used as material were purchased from DS Pharma Biomedical, Co., Ltd. The fibroblasts are derived from human skin. The above human fibroblasts were seeded in 35 mm dishes coated with gelatin (Cat #: 190-15805, manufactured by FUJIFILM Wako Pure Chemical Co.) at 5×10^4, and cultured in DMEM medium (Cat #: 11965092; manufactured by Gibco) supplemented with 10% fetal bovine serum (FBS), 100 U/mL penicillin, 100 μg/mL streptomycin until 80% to 90% confluency at 37° C., 5% CO2.
Then, after the human fibroblasts reached 80 to 90% confluency, the medium in the dish was replaced with the serum-free brown adipocyte-inducing medium “SFBAM” described below, and the human fibroblasts were cultured in SFBAM for 3 weeks. To induce ciBA, SFBAM was further supplemented with rosiglitazone (selective PPARγ agonist; 184-02651, manufactured by FUJIFILM Wako Pure Chemical Corporation) at a final concentration of 1 μmol/L, forskolin (cAMP inducer; 063-02193) at a final concentration of 7.5 μmol/L and BMP7 (bone morphogenetic protein; 026-19171, manufactured by FUJIFILM Wako Pure Chemical Corporation) at a final concentration of 20 ng/mL, and human fibroblasts were cultured for 3 weeks. Separately, capsaicin (TRPV1 agonist; 030-11353, manufactured by FUJIFILM Wako Pure Chemical Corporation) and/or nonivamide (TRPV1 agonist; sc-202735, Santa Cruz Biotechnology (manufactured by Santa Cruz Biotechnology, CA, USA), capsazepine (TRPV1 antagonist; 037-23171, manufactured by FUJIFILM Wako Pure Chemical Corporation), AMG9810 (TRPV1 antagonist; 015-25071, FUJIFILM Wako Pure Chemical Corporation), GSK1016790A (TRPV4 agonist; G0798, manufactured by Sigma-Aldrich) were added and human fibroblasts were cultured for 3 weeks. Medium was changed every 3 days.
SFBAM is a serum-free brown adipocyte-inducing medium prepared by adding each ingredient in Table 1 to DMEM medium (Cat #: 11965092; manufactured by Gibco).
To quantify gene expression, total RNA was extracted from fibroblasts treated with each compound using the FastGene (registered trademark) RNA basic kit (manufactured by Nippon Genetics). As a control, fibroblasts were cultured in parallel using SFBAM and total RNA was extracted from compound-induced brown adipocytes and control cells. After reverse transcription by ReverTraAce (registered trademark) PCR RT Master Mix with gDNA Remover (manufactured by Toyobo), Real-time PCR analysis was performed using Power SYBR Green PCR Master Mix (manufactured by Thermo Fisher Scientific). Three reactions were performed per level under the following conditions. • After 10 minutes at 95° C., • The cycle time is 15 seconds at 95° C., followed by 60 seconds at 60° C., for 40 cycles.
All results were standardized by the amount of Tbp mRNA.
Immunocytochemistry was performed as previously reported (Dai P, et al. J Clin Biochem Nutr. 2015; 56(3): 166-70). First, cells were fixed with 4% paraformaldehyde (manufactured by Nacalai Tesque). After washed with phosphate-buffered saline (PBS) three times, the cells were incubated with PBS containing 0.1% Triton X-100 for 10 minutes. The cells were then blocked with PBS containing 3% skim milk for 1hour at room temperature. UCP-1 antibodies (ab10983, manufactured by Abcam, Cambridge, UK) were diluted 1/500 with the blocking solutions. The cells were incubated with the antibodies overnight at 4° C. […] All images were acquired using a fluorescence microscopy (BZ-X710-All-in-One Fluorescence Microscope, manufactured by Keyence). […]

[1] abbreviates: compound added to SFBAM with rosiglitazone, forskolin and BMP7 (RoFB), FIGS. 1-7, 10-12.
[2] abbreviates: TRPV1 antagonist added to culture with RoFB and capsaicin (25 μmol/L), FIGS. 8, 9.

Entries after “also recorded” stand apart in the source; their conditions may differ.

On to `COc1cc(CNC(=O)CCCC/C=C/C(C)C)ccc1O` [capsaicin], for which, under setting [1], the “browning tendency of ciBAs” value is “enhanced; also recorded: promotes adipocyte browning”. Consider `CC(C)(C)c1ccc(/C=C/C(=O)Nc2ccc3c(c2)OCCO3)cc1` [AMG9810], for which the “browning tendency of ciBAs” value under setting [2] is listed as “suppressed the browning tendency”. As to `Oc1cc2c(cc1O)CN(C(=S)NCCc1ccc(Cl)cc1)CCC2` [capsazepine], the “browning tendency of ciBAs” value under setting [2] is “suppressed the browning tendency”. For `CCCCCCCCC(=O)NCc1ccc(O)c(OC)c1` [nonivamide], under setting [1], the “browning tendency of ciBAs” value is “increased the browning tendency”. Still for that read-out and setting: next, `CC(C)C[C@H](NC(=O)c1cc2ccccc2s1)C(=O)N1CCN(C(=O)[C@H](CO)NS(=O)(=O)c2ccc(Cl)cc2Cl)CC1` [GSK1016790A]: “suppressed; also recorded: inhibits adipocyte browning”.
